# Data taken from patent US20030119748A1 (Idun Pharmaceuticals, Inc., priority 1996, published 2003).
# Read-outs that look alike come from different tables or passages of the source.
# How the values were obtained:
# Format in all cases: biochemical
# mICE [1] = biological target: T1, mICE (Mus musculus, UniProt P29452); experiment: Fluorescence enzyme assay, IC50 for ICE (Example 1A)
# T1 sequence (P29452 119-402): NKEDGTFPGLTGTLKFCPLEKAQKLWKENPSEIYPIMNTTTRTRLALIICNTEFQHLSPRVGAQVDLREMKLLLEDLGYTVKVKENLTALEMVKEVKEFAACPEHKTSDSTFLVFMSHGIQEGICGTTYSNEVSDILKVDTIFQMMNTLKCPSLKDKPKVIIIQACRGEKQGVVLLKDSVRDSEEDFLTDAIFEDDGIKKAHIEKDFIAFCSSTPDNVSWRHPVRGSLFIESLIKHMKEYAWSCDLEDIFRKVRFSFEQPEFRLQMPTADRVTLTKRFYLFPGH
# Protocol: (§1) Fluorescence enzyme assays detecting the activity of the compounds of Formula 1 utilizing the recombinant ICE and CPP32 enzymes were performed essentially according to Thomberry et al. (Nature, 356:768:774 (1992)) and Nicholson et al. (Nature, 376:37-43 (1995)) respectively, (herein incorporated by reference) in 96 well microtiter plates. The substrate for these assays was Acetyl-Tyr-Val-Ala-Asp-amino-4-methylcoumarin (AMC) for the ICE assay and Acetyl-Asp-Glu-Val-Asp-amino-4-methylcoumarin for the CPP32 and Mch5 assays. Enzyme reactions were run in ICE buffer (25 mM HEPES, 1 mM EDTA, 0.1% CHAPS, 10% sucrose, pH 7.5) containing 2 mM DTT at room temperature in duplicate. The assays were performed by mixing the following components:
# (§2) 50 μl of either ICE, Mch2, Mch5 or CPP32 (18.8, 38, 8.1 and 0.153 nM concentrations, respectively) enzyme in ICE buffer containing either 8.0 (ICE, Mch2, CPP32) or 20 (Mch5) mM DTT;
# (§3) 50 μl of either the compound of Formula 1 or ICE buffer (control); and
# (§4) 100 μl of 20 μM substrate.
# (§5) The enzyme and the compound of Formula 1 to be assayed were preincubated in the microtitre plate wells for 30 minutes at room temperature prior to the addition of substrate to initiate the reaction. Fluorescent AMC product formation was monitored for one hour at room temperature by measuring the fluorescence emission at 460 nm using an excitation wavelength of 360 nm. The fluorescence change in duplicate (control) wells were averaged and the mean values were plotted as a function of inhibitor concentration to determine the inhibitor concentration producing 50% inhibition (IC50).
# CPP32 = biological target: T2, CPP32 (Homo sapiens, UniProt P42574); experiment: Fluorescence enzyme assay, IC50 for CPP32 (Example 1A); settings: Table 1, Formula A; 30 min preincubation, room temperature
# T2 sequence (P42574 29-277): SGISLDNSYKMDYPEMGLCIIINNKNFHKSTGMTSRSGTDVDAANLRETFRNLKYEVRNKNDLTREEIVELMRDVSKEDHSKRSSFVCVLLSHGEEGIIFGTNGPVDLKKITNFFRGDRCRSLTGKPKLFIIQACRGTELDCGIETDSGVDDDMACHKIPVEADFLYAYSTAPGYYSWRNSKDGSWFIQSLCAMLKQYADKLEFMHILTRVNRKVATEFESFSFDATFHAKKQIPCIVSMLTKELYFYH
# Protocol: as §1, §2, §3, §4, §5
# mICE [2] = biological target: T1, mICE; experiment: Dissociation constant Ki for irreversible inhibitors, continuous assay (Example 1B); settings: compounds of Formula B and Formula C, procedure of Example 1B
# Excerpt: B. Determination of the Dissociation Constant K1 and Irreversible Rate Constant k3 for Irreversible Inhibitors
# For the irreversible inhibition of a ICE/ced-3 Family Protease enzyme with a competitive irreversible inhibitor; using the model represented by the following formulas: [drawing 4]
# The product formation at time t may be expressed as: [drawing 5]
# where E, I, EI, and E-I denote the active enzyme, inhibitor, non-covalent enzyme-inhibitor complex and covalent enzyme-inhibitor adduct, respectively. The K1 value is the overall dissociation constant of reversible binding steps, and k3 is the irreversible rate constant. The [S] and Ks values are the substrate concentration and the dissociation constant of the substrate bound to the enzyme, respectively. [E]^T is the total enzyme concentration.
# The above equations were used to determine the K1 and k3 values of a given inhibitor bound to a ICE/ced-3 family protease. Thus, a continuous assay was run for sixty minutes at various concentrations of the inhibitor and the substrate. The assay was formulated essentially the same as described in Example 1A above, except that the reaction was initiated by adding the enzyme to the substrate-inhibitor mixture. The K1 and k3 values were obtained by simulating the product AMC formation as a function of time according to Equation 1. The reference compound for this assay was Cbz-ValAlaAsp-CH2F.
# [3] = Table 1, Formula A, 30 min preincubation, room temperature, read-out: mICE IC50
Structure (SMILES),IC50 (mICE [1]; [3]) [nM],IC50 (CPP32) [nM],IC50 (mICE [1]; read-out: IC50 (mICE)) [nM],further results
"C[C@H](NC(=O)c1cc2ccccc2n1C)C(=O)N[C@H](C=O)CC(=O)O [Example 4, (3S)-3-[(1-Methylindole-2-Carbonyl)Alaninyl]Amino-4-Oxobutanoic Acid]",177,> 10000,–,–
"Cn1c(C(=O)N2CCC[C@H]2C(=O)N[C@H](C=O)CC(=O)O)cc2ccccc21 [Example 7, (3S)-3-[(1-Methylindole-2-Carbonyl)Prolinyl]Amino-4-Oxo-Butanoic Acid]",11700,> 50000,–,–
"CC(C)C(NC(=O)c1cc2ccccc2n1C)C(=O)NC(C=O)CC(=O)O [Example 10, (3S)-3-[1-Methylindole-2-Carbonyl)Vainyl]Amino-4-Oxo-Butanoic Acid]",531,2480,–,–
"CC(C)C[C@H](NC(=O)c1cc2ccccc2n1C)C(=O)N[C@H](C=O)CC(=O)O [Example 13, (3S)-3-[(1-Methylindole-2-Carbonyl)Leucinyl]Amino-4-Oxo-Butanoic Acid]",5520,5620,–,–
"Cn1c(C(=O)NCC(=O)N[C@H](C=O)CC(=O)O)cc2ccccc21 [Example 21, (3S)-3-[(1-Methylindole-2-Carbonyl)Glycinyl]-Amino-4-Oxo-Butanoic Acid]",34700,> 50000,–,–
"C[C@H](NC(=O)c1cc2ccccc2n1Cc1ccccc1)C(=O)N[C@H](C=O)CC(=O)O [Example 24, (3S)-3-[(1-Benzylindole-2-Carbonyl)Alaninyl]Amino-4-Oxo-Butanoic Acid]",393,> 50000,–,–
"C=CCCn1c(C(=O)NC(C(=O)NC(C=O)CC(=O)O)C(C)C)cc2ccccc21 [Example 27, (3S)-3-[(1-(4′-Butenyl)indole-2-Carbonyl)Valinyl]Amino-4-Oxobutanoic Acid]",313,1450,–,–
"CC(NC(=O)c1cc2ccccc2n1CC(=O)O)C(=O)N[C@H](C=O)CC(=O)O (stereo partly drawn) [Example 30, (3S)-3-[(1-(Carboxymethyl)Indole-2-Carbonyl)Alaninyl] Amino-4-Oxobutanoic Acid]",1630,> 50000,–,–
"CC(NC(=O)c1cc2ccccc2n1CCC(=O)O)C(=O)NC(C=O)CC(=O)O [Example 33, (3S)-3-(1-(2′-Carboxyethyl)Indole-2-Carbonyl)Alaninyl] Amino-4-Oxobutanoic Acid]",198,> 50000,–,–
"CC(C)C(NC(=O)c1cc2ccccc2n1CCCc1ccccc1)C(=O)NC(CC(=O)O)C(=O)CF (stereo not drawn) [Example 52, N-[(1-(3′-Phenylpropyl)Indole-2-Carbonyl)Valinyl]-3-Amino-4-Oxo-5-Fluoropentanoic Acid]",–,–,–,Ki (mICE [2]): < 1000 nM
"CC(C)[C@H](NC(=O)c1cc2ccccc2n1-c1ccccc1)C(=O)NC(CC(=O)O)C(=O)CF (stereo partly drawn) [Example 55, N-[(1-Phenylindole-2-Carbonyl)Valinyl]-3-Amino-4-Oxo-5-Fluoropentanoic Acid]",–,–,–,Ki (mICE [2]): < 1000 nM
"Cc1c(C(=O)NC(C(=O)NC(CC(=O)O)C(=O)COc2cc3ccccc3cc2-c2ncc[nH]2)C(C)C)n(C)c2ccccc12 (stereo not drawn) [Example 80, N-[(1,3-dimethyl-indole-2-cabonyl)valinyl]-3-amino-5-[3-(imidazol-2-yl)-naphthyl-2-oxy]-4-oxo-pentanoic Acid]",–,–,< 1000,–
"CC(C)Cc1c(C(=O)NC(C(=O)NC(CC(=O)O)C(=O)COc2c(F)c(F)cc(F)c2F)C(C)C)n(C)c2ccccc12 (stereo not drawn) [Example 83, N-[(1-methyl-3-isobutyl-indole-2-cabonyl)valinyl]-3-amino-4-oxo-5-(2,3,5,6-tetrafluorophenyloxy)-pentanoic Acid]",–,–,< 1000,–
"CC(C)Cc1c(C(=O)NC(C(=O)NC(CC(=O)O)C(=O)COc2ccccc2F)C(C)C)n(C)c2ccccc12 (stereo not drawn) [Example 87, N-[(1-methyl-3-isobutyl-indole-2-cabonyl)valinyl]-3-amino-4-oxo-5-(2-fluorophenyloxy)-pentanoic Acid]",–,–,< 1000,–
"CC(C)Cc1c(C(=O)NC(CC(C)C)C(=O)NC(CC(=O)O)C(=O)COC(=O)c2c(Cl)cccc2Cl)n(C)c2ccccc12 (stereo not drawn) [Example 90, N-[(1-methyl-3-isobutyl-indole-2-cabonyl)leucinyl]-3-amino-5-(2,6-dichlorobenzoyl) oxy-4-oxo Pentanoic Acid]",–,–,< 1000,–
"CC(C)Cc1c(C(=O)NC(CC(C)C)C(=O)NC(CC(=O)O)C(=O)COc2c(F)c(F)cc(F)c2F)n(C)c2ccccc12 (stereo not drawn) [Example 92, N-[(1-methyl-3-isobutyl-indole-2-cabonyl)leucinyl]-3-amino-4-oxo-5-(2,3,5,6-tetrafluorophenyloxy)-pentanoic Acid]",–,–,< 1000,–
"CC(C)Cc1c(C(=O)NC(CC(C)C)C(=O)NC(CC(=O)O)C(=O)COP(=O)(c2ccccc2)c2ccccc2)n(C)c2ccccc12 (stereo not drawn) [Example 94, N-[(1-methyl-3-isobutyl-indole-2-cabonyl)leucinyl]-3-amino-5-(diphenylphosphoroxy)-4-oxo-pentanoic Acid]",–,–,< 1000,–
"CC(C)Cc1c(C(=O)NC(CC2CCCCC2)C(=O)NC(CC(=O)O)C(=O)COc2c(F)c(F)cc(F)c2F)n(C)c2ccccc12 (stereo not drawn) [Example 97, N-[(1-methyl-3-isobutyl-indole-2-cabonyl)cyclohexylalaninyl]-3-amino-4-oxo-5-(2,3,5,6-tetrafluorophenyloxy)-pentanoic Acid]",–,–,< 1000,–
CC(C)Cc1c(C(=O)NC(CC2CCCCC2)C(=O)NC(CC(=O)O)C(=O)COC(=O)c2c(Cl)cccc2Cl)n(C)c2ccccc12 (stereo not drawn) [Example 99],–,–,< 1000,–
"CC(C)Cc1c(C(=O)NC(CC2CCCCC2)C(=O)NC(CC(=O)O)C(=O)COc2cc(C(F)(F)F)nn2-c2ccccc2)n(C)c2ccccc12 (stereo not drawn) [Example 101, N-[(1-methyl-3-isobutyl-indole-2-cabonyl)cyclohexylalaninyl]-3-amino-4-oxo-5-[1-phenyl-3-(trifluoromethyl)pyrazol-5-yloxy]-pentanoic Acid]",–,–,< 1000,–
"Cc1c(C(=O)NC(C(=O)NC(CC(=O)O)C(=O)COc2c(F)c(F)cc(F)c2F)C(C)C)n(C)c2ccccc12 (stereo not drawn) [Example 109, N-[(1,3-dimethyl-indole-2-cabonyl)valinyl]-3-amino-4-oxo-5-(2,3,5,6-tetrafluorophenyloxy)-pentanoic Acid]",–,–,< 1000,–
"CC(C)C(NC(=O)c1cc2ccccc2n1C)C(=O)NC(CC(=O)O)C(=O)COc1c(F)c(F)cc(F)c1F (stereo not drawn) [Example 112, N-[(1-methyl-indole-2-cabonyl)valinyl]-3-amino-4-oxo-5-(2,3,5,6-tetrafluorophenyloxy)-pentanoic Acid]",–,–,< 1000,–
"CC(C)C(NC(=O)c1cc2cc(F)ccc2n1C)C(=O)NC(CC(=O)O)C(=O)COc1c(F)c(F)cc(F)c1F (stereo not drawn) [Example 115, N-[(5-fluoro-1-methyl-indole-2-cabonyl)valinyl]-3-amino-4-oxo-5-(2,3,5,6-tetrafluorophenyloxy)-pentanoic Acid]",–,–,< 1000,–
"CC(C)C(NC(=O)c1cc2ccccc2n1CC(=O)O)C(=O)NC(CC(=O)O)C(=O)COc1c(F)c(F)cc(F)c1F (stereo not drawn) [Example 118, N-{[1-(carboxymethyl)-indole-2-cabonyl]valinyl}-3-amino-4-oxo-5-(2,3,5,6-tetrafluorophenyloxy)-pentanoic Acid]",–,–,< 1000,–
